Experimental data published in patent US8815535B2, “Disk diffusion assay for oritavancin” (The Medicines Company, priority 2011, dated 2014).
Like-named read-outs stand apart in the source and are kept apart here.

Tested on: MSSA ATCC 25923
Experiment: Disk diffusion assay (zone of inhibition)
Format: cell-based, Staphylococcus aureus
Details: Staphylococcus aureus; for zone of inhibition at 12.5 µg/disc: 12.5 μg in 4% P80/Span 80 (1:1); for zone of inhibition at 100 µg/disc: 100 μg in 4% P80/Span 80 (1:1); for zone of inhibition at 200 µg/disc: 200 μg in 4% P80/Span 80 (1:1); for zone of inhibition at 270 µg/disc: 270 μg
Text: The study was designed to identify conditions that improve oritavancin diffusion in agar and consequently yield a zone diameter ≧15 mm for the CLSI quality control strain MSSA ATCC 25923. Excipients that increased the disk diffusion of oritavancin in agar relative to disks containing only oritavancin were identified and selected for further study. […] A prediffusion step at room temperature was introduced to maximize oritavancin diffusion prior to initiation of bacterial growth. In this step, the antimicrobial disks were placed on agar plates seeded with a bacterial isolate and incubated at room temperature for 3 hours. Plates were then incubated overnight at 37° C. Zone diameters around the disks in which bacterial growth was inhibited were measured with a ruler and reported in millimeters.
Ethanol-sterilized Whatman paper disks (6 mm diameter) were allowed to dry then impregnated with 20 microliters of oritavancin solution containing total amounts ranging from 90 to 360 micrograms. Disks were allowed to dry at room temperature for various times prior to use.
Bacterial suspensions were prepared and adjusted to an optical density of 0.1 at 600 nm. […] The plate was swabbed a second time, perpendicular to the orientation of the first swab. To assess the impact of prediffusion on diameter of inhibition zones, two disks were immediately placed on one half of the plate and the plate was incubated for 3 hours at room temperature. After 3 hours, two additional disks were placed on the other half of the plate then the plate was incubated overnight at 37° C. Zone diameters were measured with a ruler and reported in millimeters. […]
Oritavancin powder was dissolved in freshly-prepared solutions of the indicated excipients at concentrations of 0.625, 1.25, 2.5, 5, and 10 mg/ml (adjusted for potency based on lot 875561L00 purity of 83.1%) by vortexing for a minimum of 5 minutes. Oritavancin solutions in the various excipients, while not visually clear, were free from any apparent particulates as assessed visually. Sterile Oxoid blank disks were impregnated with 20 μl of these oritavancin solutions, resulting in oritavancin disk loads ranging from 12.5 to 200 μg. Unless indicated otherwise, disks were allowed to dry overnight at room temperature prior to use.
[…] Swabbing was continued at a right angle and then at an oblique angle to the first and second swabs. Disks were placed upon the seeded plates with sterile forceps. Plates were then incubated overnight at 37° C. and inhibition zone diameters were measured with a ruler and reported in millimeters.

[1] = read-out: Inhibition zone diameter, 25923, calcium alginate swab, dried overnight
[2] = read-out: Inhibition zone diameter, 25923, cotton swab, dried overnight, estimate of diameter

## CN[C@H](CC(C)C)C(=O)N[C@H]1C(=O)N[C@@H](CC(N)=O)C(=O)N[C@H]2C(=O)N[C@H]3C(=O)N[C@H](C(=O)N[C@H](C(=O)O)c4cc(O)cc(O)c4-c4cc3ccc4O)[C@H](O[C@H]3C[C@](C)(N)[C@@H](O)[C@H](C)O3)c3ccc(c(Cl)c3)Oc3cc2cc(c3O[C@@H]2O[C@H](CO)[C@@H](O)[C@H](O)[C@H]2O[C@H]2C[C@](C)(NCc3ccc(-c4ccc(Cl)cc4)cc3)[C@@H](O)[C@H](C)O2)Oc2ccc(cc2Cl)[C@H]1O [oritavancin, N-(4-(4-chlorophenyl)benzyl)A82846B]
read-out: Average zone diameter, MSSA ATCC 25923, 90 μg oritavancin in 0.002% P80, CAMHA containing 1% P80, prediffusion
  zone of inhibition at 90 µg/disc: 12.8 mm
read-out: Average zone diameter, MSSA ATCC 25923, 180 μg oritavancin in 0.002% P80, CAMHA containing 1% P80, no prediffusion
  zone of inhibition at 180 µg/disc: 12.3 mm
read-out: Average zone diameter, MSSA ATCC 25923, 180 μg oritavancin in 0.002% P80, CAMHA containing 1% P80, prediffusion
  zone of inhibition at 180 µg/disc: 13 mm
read-out: Average zone diameter, MSSA ATCC 25923, 360 μg oritavancin in 0.002% P80, CAMHA containing 1% P80, no prediffusion
  zone of inhibition at 360 µg/disc: 12.8 mm
read-out: Average zone diameter, MSSA ATCC 25923, 360 μg oritavancin in 0.002% P80, CAMHA containing 1% P80, prediffusion
  zone of inhibition at 360 µg/disc: 12.5 mm
[1]
  zone of inhibition at 12.5 µg/disc: 20 mm
  zone of inhibition at 100 µg/disc: 14 mm
  zone of inhibition at 200 µg/disc: 11 mm
[2]
  zone of inhibition at 12.5 µg/disc: 27 mm
  zone of inhibition at 100 µg/disc: 21 mm
  zone of inhibition at 200 µg/disc: 15 mm
read-out: Inhibition zone diameter, 25923, 25 μg in 4% P80/Span 80 (1:1), cotton swab (Table 14), dried overnight, estimate of diameter
  zone of inhibition at 25 µg/disc: 30 mm
read-out: Inhibition zone diameter, 25923, 50 μg in 4% P80/Span 80 (1:1), calcium alginate swab, dried overnight
  zone of inhibition at 50 µg/disc: 19 mm
read-out: Inhibition zone diameter, 25923, 50 μg in 4% P80/Span 80 (1:1), cotton swab, dried overnight, estimate of diameter
  zone of inhibition at 50 µg/disc: 24 mm
read-out: Inhibition zone diameter, ATCC 25923, 25 μg (20 μl of 1.25 mg/ml) in 4% P80/Span 80 (1:1), calcium alginate swab, dried overnight
  zone of inhibition at 1250 µg/mL: 21 mm
read-out: Inhibition zone diameter, ATCC 25923, 50 μg, 4% P80/Span 80 ratio 50:50, dried overnight, estimate of diameter
  zone of inhibition at 50 µg/disc: 23 mm
read-out: Inhibition zone diameter, ATCC 25923, 50 μg, 4% P80/Span 80 ratio 60:40, dried overnight, estimate of diameter
  zone of inhibition at 50 µg/disc: 21 mm
read-out: Inhibition zone diameter, ATCC 25923, 50 μg, 4% P80/Span 80 ratio 70:30, dried overnight, estimate of diameter
  zone of inhibition at 50 µg/disc: 19 mm
read-out: Inhibition zone diameter, ATCC 25923, 50 μg, 4% P80/Span 80 ratio 80:20, dried overnight, estimate of diameter
  zone of inhibition at 50 µg/disc: 16 mm
read-out: Inhibition zone diameter, ATCC 25923, 50 μg, 4% P80/Span 80 ratio 90:10, dried overnight, estimate of diameter
  zone of inhibition at 50 µg/disc: 13 mm
read-out: Inhibition zone diameter, ATCC 25923, 20 μl of 1.25 mg/ml oritavancin in 1% poly(ethylene glycol) sorbitol hexaoleate
  zone of inhibition at 1250 µg/mL: ≤ 15 mm
read-out: Inhibition zone diameter, ATCC 25923, 20 μl of 1.25 mg/ml oritavancin in 5% Brij 30
  zone of inhibition at 1250 µg/mL: ≤ 15 mm
read-out: Inhibition zone diameter, ATCC 25923, 20 μl of 1.25 mg/ml oritavancin in 5% Merpol SE
  zone of inhibition at 1250 µg/mL: ≤ 15 mm
read-out: Inhibition zone diameter, ATCC 25923, Oxoid disks, 20 μl of 18 mg/ml oritavancin in 5% P80, stored 30 days at room temperature, prediffusion 6 hours at 4° C.
  zone of inhibition at 18000 µg/mL: > 15 mm
read-out: Inhibition zone diameter, MSSA ATCC 25923, 20 μl of 1.25 mg/ml in 4% P80/Span 80 (1:1), cotton swab (FIG. 2), dried overnight
  zone of inhibition at 1250 µg/mL: ~24 mm
read-out: Inhibition zone diameter, MSSA ATCC 25923, 20 μl of 1.25 mg/ml in 4% P80/Span 80 (1:1), flocked swab (FIG. 2), dried overnight
  zone of inhibition at 1250 µg/mL: ~24 mm
read-out: Inhibition zone diameter, MSSA ATCC 25923, 20 μl of 1.25 mg/ml in 4% P80/Span 80 (1:1), foam swab (FIG. 2), dried overnight
  zone of inhibition at 1250 µg/mL: ~26 mm
read-out: Inhibition zone diameter, MSSA ATCC 25923, 20 μl of 1.25 mg/ml in 4% P80/Span 80 (1:1), polyester swab (FIG. 2), dried overnight
  zone of inhibition at 1250 µg/mL: ~24 mm
read-out: Inhibition zone diameter, MSSA ATCC 25923, 20 μl of 1.25 mg/ml in 4% P80/Span 80 (1:1), rayon swab (FIG. 2), dried overnight
  zone of inhibition at 1250 µg/mL: ~22 mm
read-out: Inhibition zone diameter, MSSA ATCC 25923, Oxoid disk, 180 μg, 2.5% P80, stored 7 days, prediffusion 3 h at 4° C., duplicates
  zone of inhibition at 180 µg/disc: 12.5 mm
read-out: Inhibition zone diameter, MSSA ATCC 25923, Oxoid disk, 180 μg, 5% P80, stored 7 days, prediffusion 3 h at 4° C., duplicates
  zone of inhibition at 180 µg/disc: 12 mm
read-out: Inhibition zone diameter, MSSA ATCC 25923, Oxoid disk, 2.5% P80, stored 7 days, prediffusion 3 h at 4° C., duplicates
  zone of inhibition at 270 µg/disc: 13 mm
read-out: Inhibition zone diameter, MSSA ATCC 25923, Oxoid disk, 5% P80, stored 7 days, prediffusion 3 h at 4° C., duplicates
  zone of inhibition at 270 µg/disc: 13 mm
read-out: Inhibition zone diameter, MSSA ATCC 25923, Oxoid disk, 360 μg, 2.5% P80, stored 7 days, prediffusion 3 h at 4° C., duplicates
  zone of inhibition at 360 µg/disc: 13 mm
read-out: Inhibition zone diameter, MSSA ATCC 25923, Oxoid disk, 360 μg, 5% P80, stored 7 days, prediffusion 3 h at 4° C., duplicates
  zone of inhibition at 360 µg/disc: 14 mm
read-out: Inhibition zone diameter, MSSA ATCC 25923, Whatman #5 disk, 180 μg, 2.5% P80, stored 7 days, prediffusion 3 h at 4° C., duplicates
  zone of inhibition at 180 µg/disc: 15.5 mm
read-out: Inhibition zone diameter, MSSA ATCC 25923, Whatman #5 disk, 180 μg, 5% P80, stored 7 days, prediffusion 3 h at 4° C., duplicates
  zone of inhibition at 180 µg/disc: 14.5 mm
read-out: Inhibition zone diameter, MSSA ATCC 25923, Whatman #5 disk, 2.5% P80, stored 7 days, prediffusion 3 h at 4° C., duplicates
  zone of inhibition at 270 µg/disc: 15.5 mm
read-out: Inhibition zone diameter, MSSA ATCC 25923, Whatman #5 disk, 5% P80, stored 7 days, prediffusion 3 h at 4° C., duplicates
  zone of inhibition at 270 µg/disc: 16 mm
read-out: Inhibition zone diameter, MSSA ATCC 25923, Whatman #5 disk, 360 μg, 2.5% P80, stored 7 days, prediffusion 3 h at 4° C., duplicates
  zone of inhibition at 360 µg/disc: 15.5 mm
read-out: Inhibition zone diameter, MSSA ATCC 25923, Whatman #5 disk, 360 μg, 5% P80, stored 7 days, prediffusion 3 h at 4° C., duplicates
  zone of inhibition at 360 µg/disc: 16 mm
read-out: Zone diameter (mm ± SD), ATCC 25923, 360 μg in 5% P80, Average of experiments, no prediffusion
  zone of inhibition at 360 µg/disc: 14.9 ± 0.5 mm
read-out: Zone diameter (mm ± SD), ATCC 25923, 360 μg in 5% P80, Average of experiments, prediffusion
  zone of inhibition at 360 µg/disc: 17.5 ± 0.6 mm
read-out: Zone diameter (mm ± SD), ATCC 25923, 360 μg in 5% P80, Experiment 1, disks stored 14 days, 3 h prediffusion at room temperature
  zone of inhibition at 360 µg/disc: 18 mm
read-out: Zone diameter (mm ± SD), ATCC 25923, 360 μg in 5% P80, Experiment 2, disks stored 8 days, 3 h prediffusion at room temperature
  zone of inhibition at 360 µg/disc: 17 mm
